Our source for the Kd, IC50 and inhibition values is patent US10508120B2, “TYK2 inhibitors and uses thereof” (Nimbus Lakshmi, Inc., priority 2017, dated 2019).

Experiment [1] has as its target human TYK2 (JH2domain-pseudokinase) (Homo sapiens (Human), UniProt P29597). The experiment is described as follows: TYK2 JH2 Domain Binding Assay (KINOMEscan). A digest of the protocol: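 Kds, run in duplicate, came from Hill fits (slope fixed at −1) of an 11-point 3-fold dilution series starting at 30,000 nM. Bead-retained TYK2 JH2 (aa G556–D888)–NFkB DBD fusion, DNA-tagged and expressed in HEK293 cells, was read by qPCR after 1 h room-temperature binding in 0.9% DMSO.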

Experiment [2] has as its target Tyk2/JAK2 (heterodimeric complex) (Homo sapiens (Human), UniProt P29597). Nature of the experiment: IL-12 Induced pSTAT4 in Human PBMC. Format: cell-based. Conditions: 1.7 ng/mL IL-12. An excerpt:
The IL-12 Induced pSTAT4 assay evaluates the inhibition of IL-12 induced STAT4 phophorylation mediated by Tyk2/JAK2 (heterodimeric complex).

For experiment [3], the target named is JAK2/JAK2 homdimeric complex (Homo sapiens (Human), UniProt O60674). The experiment is described as follows: GM-CSF Induced pSTAT5 in Human PBMC. Format: cell-based. The following applies: GM-CSF 5 ng/mL for 20 minutes, pSTAT5 by MSD, read-out: PBMC_GMCSF_pSTAT5 IC50.
Chain of JAK2/JAK2 homdimeric complex (O60674 whole entry, the tested form may be a part): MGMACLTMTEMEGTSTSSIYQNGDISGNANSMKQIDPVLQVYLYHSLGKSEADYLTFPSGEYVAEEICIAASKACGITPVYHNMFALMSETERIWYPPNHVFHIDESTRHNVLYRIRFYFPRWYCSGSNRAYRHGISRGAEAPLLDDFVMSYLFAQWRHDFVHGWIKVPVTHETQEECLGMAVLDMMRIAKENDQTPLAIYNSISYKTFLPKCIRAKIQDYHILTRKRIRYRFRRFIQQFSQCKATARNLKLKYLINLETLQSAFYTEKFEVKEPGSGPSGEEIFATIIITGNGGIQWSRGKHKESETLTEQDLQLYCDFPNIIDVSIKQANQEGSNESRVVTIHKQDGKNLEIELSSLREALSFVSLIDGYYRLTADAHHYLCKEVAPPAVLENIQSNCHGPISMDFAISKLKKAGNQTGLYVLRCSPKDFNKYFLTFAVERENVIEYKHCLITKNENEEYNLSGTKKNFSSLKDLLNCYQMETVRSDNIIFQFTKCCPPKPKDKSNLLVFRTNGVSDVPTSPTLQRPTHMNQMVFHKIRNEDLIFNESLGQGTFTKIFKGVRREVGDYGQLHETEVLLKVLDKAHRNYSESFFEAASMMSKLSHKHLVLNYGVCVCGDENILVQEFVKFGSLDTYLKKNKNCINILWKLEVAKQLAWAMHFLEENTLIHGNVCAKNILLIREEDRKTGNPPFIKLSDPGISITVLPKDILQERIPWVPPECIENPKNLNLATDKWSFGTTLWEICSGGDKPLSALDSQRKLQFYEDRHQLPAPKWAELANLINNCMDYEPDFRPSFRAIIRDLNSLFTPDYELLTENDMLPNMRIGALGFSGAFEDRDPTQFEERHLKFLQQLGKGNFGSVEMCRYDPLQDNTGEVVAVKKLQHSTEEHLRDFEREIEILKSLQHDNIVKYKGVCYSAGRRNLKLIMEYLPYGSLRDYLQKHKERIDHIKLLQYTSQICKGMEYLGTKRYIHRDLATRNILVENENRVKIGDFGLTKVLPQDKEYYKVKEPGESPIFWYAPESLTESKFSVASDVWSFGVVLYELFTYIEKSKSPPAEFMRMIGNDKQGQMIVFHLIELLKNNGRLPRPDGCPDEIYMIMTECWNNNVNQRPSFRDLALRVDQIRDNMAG
Chain of JAK2/JAK2 homdimeric complex (P32927 17-897 partner): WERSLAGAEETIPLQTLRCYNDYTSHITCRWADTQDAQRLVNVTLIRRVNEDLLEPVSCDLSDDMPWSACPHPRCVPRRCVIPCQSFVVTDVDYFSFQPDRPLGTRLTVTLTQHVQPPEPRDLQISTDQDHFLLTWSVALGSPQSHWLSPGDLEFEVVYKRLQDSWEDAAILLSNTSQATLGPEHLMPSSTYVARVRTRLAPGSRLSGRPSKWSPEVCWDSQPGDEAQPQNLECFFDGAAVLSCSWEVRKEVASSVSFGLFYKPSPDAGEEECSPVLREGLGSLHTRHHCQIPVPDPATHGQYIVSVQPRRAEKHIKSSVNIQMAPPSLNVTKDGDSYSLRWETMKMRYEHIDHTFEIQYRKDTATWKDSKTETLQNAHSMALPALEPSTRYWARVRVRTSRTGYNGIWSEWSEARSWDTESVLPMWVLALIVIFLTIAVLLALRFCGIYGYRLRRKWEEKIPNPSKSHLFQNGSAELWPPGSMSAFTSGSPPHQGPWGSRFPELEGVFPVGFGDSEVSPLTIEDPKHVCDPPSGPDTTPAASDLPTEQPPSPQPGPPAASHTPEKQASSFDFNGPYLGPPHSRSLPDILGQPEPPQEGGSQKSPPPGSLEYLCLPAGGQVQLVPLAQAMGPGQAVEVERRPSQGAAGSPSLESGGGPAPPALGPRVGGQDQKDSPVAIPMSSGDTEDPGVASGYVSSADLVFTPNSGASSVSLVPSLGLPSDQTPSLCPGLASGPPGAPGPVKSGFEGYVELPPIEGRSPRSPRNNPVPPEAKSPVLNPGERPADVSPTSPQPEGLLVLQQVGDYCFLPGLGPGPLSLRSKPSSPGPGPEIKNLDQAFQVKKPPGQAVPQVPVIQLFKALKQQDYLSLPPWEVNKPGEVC
For the next experiment, the target named is Tyk2 kinase domain (DH1) (Homo sapiens (Human), UniProt P29597). The experiment is described as follows: Tyk2 Radioactive Kinase Assay. Format: biochemical. Conditions: compound at 10 μM; ATP 10 μM; read-out: Tyk2 JH1% Inhibition @ 10 μM. A digest of the protocol: (§1)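 Single-point screen: 10 μM test compound, radioactive kinase read-out, percent inhibition reported for each kinase domain.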
Chain of Tyk2 kinase domain (DH1) (P29597 897-1176): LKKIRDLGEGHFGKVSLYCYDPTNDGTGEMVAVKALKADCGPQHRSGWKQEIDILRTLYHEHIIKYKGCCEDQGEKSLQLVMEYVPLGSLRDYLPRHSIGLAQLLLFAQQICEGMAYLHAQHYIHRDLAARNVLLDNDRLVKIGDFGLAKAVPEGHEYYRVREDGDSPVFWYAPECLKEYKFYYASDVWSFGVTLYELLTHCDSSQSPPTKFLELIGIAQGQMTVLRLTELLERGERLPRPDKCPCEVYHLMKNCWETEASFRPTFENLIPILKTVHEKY

Another experiment has as its target JAK2 kinase domain (JH1) (Homo sapiens (Human), UniProt O60674). The experiment is described as follows: JAK2 Radioactive Kinase Assay. Conditions: compound at 10 μM; ATP 10 μM; read-out: JAK2 JH1% Inhibition @ 10 μM. Format: biochemical. A digest of the protocol:
as §1

Chain of Tyk2/JAK2 (heterodimeric complex) (P29597 whole entry, other chains not shown): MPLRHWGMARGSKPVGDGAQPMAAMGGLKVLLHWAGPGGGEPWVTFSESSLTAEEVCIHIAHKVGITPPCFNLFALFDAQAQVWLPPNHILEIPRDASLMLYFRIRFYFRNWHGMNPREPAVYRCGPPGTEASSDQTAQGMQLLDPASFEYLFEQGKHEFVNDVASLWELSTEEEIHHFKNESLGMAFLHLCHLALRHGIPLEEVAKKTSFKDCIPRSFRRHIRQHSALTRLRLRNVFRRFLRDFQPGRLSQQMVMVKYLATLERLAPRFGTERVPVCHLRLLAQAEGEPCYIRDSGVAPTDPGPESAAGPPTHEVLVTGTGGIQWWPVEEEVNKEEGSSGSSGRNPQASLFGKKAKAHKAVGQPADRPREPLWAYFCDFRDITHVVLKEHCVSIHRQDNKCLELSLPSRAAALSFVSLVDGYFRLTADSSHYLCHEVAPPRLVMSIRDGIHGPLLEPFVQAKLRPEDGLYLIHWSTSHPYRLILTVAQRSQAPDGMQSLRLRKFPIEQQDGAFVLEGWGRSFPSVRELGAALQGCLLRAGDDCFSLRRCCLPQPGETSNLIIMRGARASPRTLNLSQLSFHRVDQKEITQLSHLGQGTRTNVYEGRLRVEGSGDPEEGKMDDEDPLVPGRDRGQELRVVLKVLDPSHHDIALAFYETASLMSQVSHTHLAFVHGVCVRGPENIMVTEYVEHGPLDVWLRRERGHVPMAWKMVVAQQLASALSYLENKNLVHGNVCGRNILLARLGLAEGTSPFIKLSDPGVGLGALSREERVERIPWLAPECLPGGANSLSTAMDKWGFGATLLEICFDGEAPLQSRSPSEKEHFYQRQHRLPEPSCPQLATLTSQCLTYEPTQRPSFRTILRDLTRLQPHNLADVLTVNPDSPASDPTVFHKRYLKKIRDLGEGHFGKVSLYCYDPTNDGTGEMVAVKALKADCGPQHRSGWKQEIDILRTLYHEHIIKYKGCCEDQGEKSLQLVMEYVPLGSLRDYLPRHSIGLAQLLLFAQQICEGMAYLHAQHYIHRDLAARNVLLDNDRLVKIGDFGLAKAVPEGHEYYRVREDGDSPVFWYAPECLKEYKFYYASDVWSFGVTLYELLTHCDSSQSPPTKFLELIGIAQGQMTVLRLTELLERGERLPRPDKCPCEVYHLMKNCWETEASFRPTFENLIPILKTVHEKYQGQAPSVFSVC
Chain of JAK2 kinase domain (JH1) (O60674 849-1124): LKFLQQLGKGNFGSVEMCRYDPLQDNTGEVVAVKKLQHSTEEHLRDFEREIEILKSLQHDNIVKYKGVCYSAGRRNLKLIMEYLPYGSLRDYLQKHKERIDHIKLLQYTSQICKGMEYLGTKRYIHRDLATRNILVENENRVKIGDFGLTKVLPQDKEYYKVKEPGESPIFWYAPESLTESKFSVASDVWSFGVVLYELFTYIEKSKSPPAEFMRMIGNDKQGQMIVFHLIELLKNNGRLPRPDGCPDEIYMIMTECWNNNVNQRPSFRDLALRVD
Chain of human TYK2 (JH2domain-pseudokinase) (P29597 556-888): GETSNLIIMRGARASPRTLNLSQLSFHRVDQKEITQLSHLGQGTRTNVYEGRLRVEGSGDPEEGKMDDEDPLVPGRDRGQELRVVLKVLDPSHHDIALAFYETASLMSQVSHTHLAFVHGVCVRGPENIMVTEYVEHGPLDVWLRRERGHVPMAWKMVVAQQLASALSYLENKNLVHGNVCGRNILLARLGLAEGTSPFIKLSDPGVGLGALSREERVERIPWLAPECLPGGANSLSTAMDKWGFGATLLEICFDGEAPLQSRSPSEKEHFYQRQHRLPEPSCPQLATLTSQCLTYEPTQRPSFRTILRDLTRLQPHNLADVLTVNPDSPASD

The Kd is the equilibrium constant for the complex coming apart. In general, IC50 refers to the concentration that gives 50% inhibition. Broadly, the inhibition is the share of the control response that was lost under treatment. Compound `CNc1cc(-c2cn(C(C)C)c3ncc(Cl)cc23)nc2c(C(N)=O)cnn12` [I-272, 5-(5-chloro-1-isopropyl-1H-pyrrolo[2,3-b]pyridin-3-yl)-7-(methylamino) pyrazolo[1,5-a]pyrimidine-3-carboxamide] came in with a Kd in experiment [1] below 0.2 nM. Further, the IC50 in experiment [2] is below 100 nM; in experiment [3] it was above 12500 nM. Besides, the inhibition at 10 µM on Tyk2 kinase domain (DH1) and at JAK2 kinase domain (JH1) was below 50% throughout.
As for `CNc1cc(Nc2cc(F)cnc2OC2CC2)nc2c(C(=O)NC3CC3)cnn12` [I-274], in experiment [1], the dissociation constant (Kd) is below 0.2 nM. The IC50 was below 100 nM in experiment [2] and above 12500 nM in experiment [3]. In addition, the inhibition at 10 µM on Tyk2 kinase domain (DH1) and on JAK2 kinase domain (JH1) was below 50% each time.
`CNc1cc(Nc2cc(F)cnc2OC2CC2)nc2c(C(=O)N[C@H]3C[C@H]3F)cnn12` [I-275] displayed a Kd in experiment [1] below 0.2 nM. Moreover, the values for the IC50 in experiment [2] and in experiment [3] were below 100 nM and above 50000 nM, respectively. The inhibition at 10 µM at Tyk2 kinase domain (DH1) and on JAK2 kinase domain (JH1) was below 50% each time.
For `CNc1cc(Nc2cc(F)cnc2OC2CC2)nc2c(C(=O)NC3CCC3)cnn12` [I-276], the Kd in experiment [1] was below 0.2 nM. Further, the values for the IC50 in experiment [2] and in experiment [3] were below 100 nM and above 50000 nM, respectively. The inhibition at 10 µM on Tyk2 kinase domain (DH1) and at JAK2 kinase domain (JH1) was below 50% throughout.
`CNc1cc(Nc2cc(C)cnc2OC2CC2)nc2c(C(=O)NC3CC3)cnn12` [I-277]: the dissociation constant Kd in experiment [1] is 0.2 to 1 nM. The IC50 is 100 to 500 nM in experiment [2] and above 50000 nM in experiment [3]. Also, the inhibition at 10 µM at Tyk2 kinase domain (DH1) and on JAK2 kinase domain (JH1) was below 50% in each case.
`CNc1cc(Nc2cc(C)cnc2OCCOC)nc2c(C(=O)NC3CC3)cnn12` [I-281] showed a Kd in experiment [1] of 0.2 to 1 nM. The IC50 in experiment [2] was 100 to 500 nM; in experiment [3] it was above 2500 nM. The inhibition at 10 µM at Tyk2 kinase domain (DH1) and on JAK2 kinase domain (JH1) was below 50% each time.
Regarding `CNc1cc(Nc2cc(C)cnc2OCCOC)nc2c(C(=O)NC3CCC3)cnn12` [I-282], in experiment [1], the Kd lay within 0.2 to 1 nM. Moreover, the IC50 in experiment [2] is 100 to 500 nM; in experiment [3] it was above 2500 nM. The inhibition at 10 µM on Tyk2 kinase domain (DH1) and at JAK2 kinase domain (JH1) was below 50% throughout.
With `CNc1cc(Nc2cc(F)cnc2OC)nc2c(C(=O)NCC(C)(C)CO)cnn12` [I-283], the Kd in experiment [1] is below 0.2 nM. In addition, the IC50 in experiment [2] is below 100 nM; in experiment [3] it was above 50000 nM. For the same compound, the inhibition at 10 µM on Tyk2 kinase domain (DH1) and on JAK2 kinase domain (JH1) was below 50% in each case.
`[2H]C([2H])([2H])Oc1ncc(F)cc1Nc1cc(NC)n2ncc(C(=O)NC3CC3)c2n1` [I-284]: the Kd in experiment [1] was below 0.2 nM. Besides, the IC50 in experiment [2] is below 100 nM; in experiment [3], above 12500 nM. The inhibition at 10 µM at Tyk2 kinase domain (DH1) and at JAK2 kinase domain (JH1) was below 50% each time.
In experiment [1], `CNc1cc(Nc2cc(F)cnc2OCCOC)nc2c(C(=O)N[C@H]3C[C@H]3F)cnn12` [I-285] displayed a Kd below 0.2 nM. Moreover, the half-inhibitory concentration (IC50) in experiment [2] was below 100 nM; in experiment [3] it was above 50000 nM. The inhibition at 10 µM at Tyk2 kinase domain (DH1) and at JAK2 kinase domain (JH1) was below 50% in each case.
The compound `[2H]C([2H])([2H])Oc1ncc(F)cc1Nc1cc(NC)n2ncc(C(=O)NC3CCC3)c2n1` [I-288] came in with a dissociation constant (Kd) in experiment [1] below 0.2 nM. Moreover, the IC50 in experiment [2] was below 100 nM; in experiment [3], above 2500 nM. The inhibition at 10 µM at Tyk2 kinase domain (DH1) and on JAK2 kinase domain (JH1) was below 50% each time.
On to `CNc1cc(Nc2cc(F)cnc2OCCOC)nc2c(C(=O)NC3CCC3)cnn12` [I-290], for which the Kd in experiment [1] is 0.2 to 1 nM. In addition, the IC50 was below 100 nM in experiment [2] and above 2500 nM in experiment [3]. The inhibition at 10 µM at Tyk2 kinase domain (DH1) and at JAK2 kinase domain (JH1) was below 50% throughout.
Regarding `CNc1cc(Nc2cccn(-c3nc(C)c(C)s3)c2=O)nc2c(C(=O)N[C@H]3C[C@H]3F)cnn12` [I-292], in experiment [1], the equilibrium dissociation constant (Kd) fell in the range of 0.2 to 1 nM. The figures for the IC50 in experiment [2] and in experiment [3] were below 100 nM and above 2500 nM, respectively. Besides, the inhibition at 10 µM at Tyk2 kinase domain (DH1) and on JAK2 kinase domain (JH1) was below 50% each time.
`CNc1cc(Nc2cccn(-c3ccn(C)n3)c2=O)nc2c(C(=O)NC3CC3)cnn12` [I-294]: the Kd in experiment [1] is 0.2 to 1 nM. In addition, the IC50 in experiment [2] was below 100 nM; in experiment [3], above 12500 nM. The inhibition at 10 µM at Tyk2 kinase domain (DH1) and at JAK2 kinase domain (JH1) was below 50% each time.
For the compound `CNc1cc(Nc2cccn(-c3cnn(C)c3)c2=O)nc2c(C(=O)NC3CC3)cnn12` [I-295], the Kd in experiment [1] was below 0.2 nM. Besides, the IC50 in experiment [2] is below 100 nM; in experiment [3], above 50000 nM. Further, the inhibition at 10 µM at Tyk2 kinase domain (DH1) and at JAK2 kinase domain (JH1) was below 50% each time.
In experiment [1], `CNc1cc(Nc2cccn(-c3cnn(C)c3)c2=O)nc2c(C(=O)N[C@H]3C[C@H]3F)cnn12` [I-296] registered a Kd below 0.2 nM. Further, the IC50 in experiment [2] was below 100 nM; in experiment [3], above 50000 nM. Also, the inhibition at 10 µM on Tyk2 kinase domain (DH1) and at JAK2 kinase domain (JH1) was below 50% each time.
With `CNc1cc(Nc2cccn(-c3cncc(C)c3)c2=O)nc2c(C(=O)NC3CCC3)cnn12` [I-303], in experiment [1], the Kd was below 0.2 nM. The IC50 in experiment [2] is below 100 nM; in experiment [3], above 50000 nM. Further, the inhibition at 10 µM at Tyk2 kinase domain (DH1) and at JAK2 kinase domain (JH1) was below 50% in each case.
The compound `CNc1cc(Nc2cccn(C3CCCCC3)c2=O)nc2c(C(=O)N[C@H]3C[C@H]3F)cnn12` [I-305] returned a Kd in experiment [1] below 0.2 nM. Further, the IC50 is below 100 nM in experiment [2] and above 12500 nM in experiment [3]. The inhibition at 10 µM on Tyk2 kinase domain (DH1) and at JAK2 kinase domain (JH1) was below 50% throughout.
In the case of `CNc1cc(Nc2cc(Cl)cn(-c3ccn(C)n3)c2=O)nc2c(C(=O)N[C@H]3C[C@H]3F)cnn12` [I-309], the Kd in experiment [1] is below 0.2 nM. Besides, the IC50 in experiment [2] is below 100 nM; in experiment [3], above 12500 nM. The inhibition at 10 µM at Tyk2 kinase domain (DH1) and on JAK2 kinase domain (JH1) was below 50% throughout.
In experiment [1], `CNc1cc(Nc2cc(Cl)cn(-c3ccn(C)n3)c2=O)nc2c(C(=O)NC3CC3)cnn12` [I-310] gave a Kd below 0.2 nM. The figures for the IC50 in experiment [2] and in experiment [3] were below 100 nM and above 2500 nM, respectively. Moreover, the inhibition at 10 µM at Tyk2 kinase domain (DH1) and on JAK2 kinase domain (JH1) was below 50% throughout.
Take `CNc1cc(Nc2cc(Cl)cn(-c3cnn(C)c3)c2=O)nc2c(C(=O)NC3CC3)cnn12` [I-311]: the Kd in experiment [1] was below 0.2 nM. Further, the IC50 is below 100 nM in experiment [2] and above 12500 nM in experiment [3]. Moreover, the inhibition at 10 µM on Tyk2 kinase domain (DH1) and on JAK2 kinase domain (JH1) was below 50% each time.
`CNc1cc(Nc2cc(Cl)cn(-c3cnn(C)c3)c2=O)nc2c(C(=O)N[C@H]3C[C@H]3F)cnn12` [I-312] came in with a dissociation constant (Kd) in experiment [1] below 0.2 nM. Moreover, the 50% inhibitory concentration (IC50) in experiment [2] was below 100 nM; in experiment [3], above 12500 nM. For the same compound, the inhibition at 10 µM on Tyk2 kinase domain (DH1) and at JAK2 kinase domain (JH1) was below 50% in each case.
For `CNc1cc(Nc2cc(Cl)cn(-c3cc(C)n(C)n3)c2=O)nc2c(C(=O)NC3CC3)cnn12` [I-314], in experiment [1], the Kd was below 0.2 nM. The results for the IC50 in experiment [2] and in experiment [3] were below 100 nM and above 2500 nM, respectively. For the same compound, the inhibition at 10 µM on Tyk2 kinase domain (DH1) and on JAK2 kinase domain (JH1) was below 50% each time.
In experiment [1], `CNc1cc(Nc2cc(Cl)cn(-c3cc(C)n(C)n3)c2=O)nc2c(C(=O)N[C@H]3C[C@H]3F)cnn12` [I-315] returned a Kd below 0.2 nM. For the same compound, the values for the IC50 in experiment [2] and in experiment [3] were below 100 nM and above 12500 nM, respectively. Besides, the inhibition at 10 µM at Tyk2 kinase domain (DH1) and at JAK2 kinase domain (JH1) was below 50% in each case.
